Measurements from ChEMBL document CHEMBL5346892, “Design and synthesis of benzochromene derivatives as AcrB inhibitors for the reversal of bacterial multidrug resistance” (Eur J Med Chem, 2023).

What was measured:
Format in all cases: functional
[1] = tested on: Escherichia coli; test: Synergistic antibacterial activity against wild type Escherichia coli BW25113 assessed as erythromycin MIC at 4 microg/ml incubated for 18 hrs in presence of colistin by broth dilution assay; conditions: dose 4 µg/ml
[2] = tested on: Escherichia coli; test: Synergistic antibacterial activity against wild type Escherichia coli BW25113 assessed as minocycline MIC at 1 microg/ml incubated for 18 hrs in presence of colistin by broth dilution assay; conditions: dose 1 µg/ml
[3] = tested on: Escherichia coli; test: Synergistic antibacterial activity against wild type Escherichia coli BW25113 assessed as minocycline MIC at 2 microg/ml incubated for 18 hrs in presence of colistin by broth dilution assay; conditions: dose 2 µg/ml
[4] = tested on: Escherichia coli; test: Synergistic antibacterial activity against wild type Escherichia coli BW25113 assessed as erythromycin MIC at 128 microg/ml incubated for 18 hrs in presence of colistin by broth dilution assay; conditions: dose 128 µg/ml
[5] = tested on: Escherichia coli; test: Synergistic antibacterial activity against wild type Escherichia coli BW25113 assessed as fold decrease in levofloxacin MIC at 64 microg/ml incubated for 18 hrs by checkboard based microplate reader analysis; conditions: dose 64 µg/ml
[6] = tested on: Escherichia coli; test: Synergistic antibacterial activity against wild type Escherichia coli BW25113 assessed as fold decrease in erythromycin MIC at 16 to 64 microg/ml incubated for 18 hrs by checkboard based microplate reader analysis; conditions: dose 16-64 µg/ml
[7] = tested on: Escherichia coli; test: Synergistic antibacterial activity against wild type Escherichia coli BW25113 assessed as fold decrease in erythromycin MIC at 64 microg/ml incubated for 18 hrs by checkboard based microplate reader analysis; conditions: dose 64 µg/ml

For CC1(C)CCc2c(C(=O)N3CCOCC3)cc3c(OCCSc4ccc([N+](=O)[O-])cc4)cccc3c2O1, the MIC [1] was 8 µg/mL.

With CC1(C)CCc2c(C(=O)N3CCOCC3)cc3c(OCCN4CCN(c5ccccc5)CC4)cccc3c2O1 the MIC [2] was 0.5 µg/mL and the MIC [3] was 0.5 µg/mL.

In the case of COc1ccc(OCCCOc2cccc3c4c(c(C(=O)N5CCOCC5)cc23)CCC(C)(C)O4)cc1, the MIC [4] is reported as 8 µg/mL.

For CC1(C)CCc2c(C(=O)N3CCOCC3)cc3c(OCCCOc4cccc(C(=O)O)c4)cccc3c2O1, the “fold change (FC)” value [5] was 4, the “fold change (FC)” value [6] was 4 and the “fold change (FC)” value [7] was 4.
